Measurements published in EP4778516A1, “CALCIFICATION ENHANCER FOR OSTEOBLAST MC3T3-E1 CELL” (Watanabe Oyster Laboratory Co., Ltd., priority 2023, dated 2025).
Read-outs that look alike come from different tables or passages of the source.

Tests used:
MC3T3-E1 cells = experiment: Effects of conditioned medium of LPS-stimulated RAW264.7 cells on MC3T3-E1 cells; type: cell-based, mouse
Description: A conditioned medium was obtained by culturing RAW264.7 cells.
RAW264.7 cells (1×10^5 cells/ml per well in a 24-well plate) were cultured for 3 days after reaching subconfluence in DMEM containing 10% FBS and 1% P/S in the presence or absence of LPS (concentration in the medium: 100 ng/ml). After the cells were cultured, the medium (conditioned medium) was collected.
To evaluate the effects of the conditioned medium on proliferation of MC3T3-E1 cells, MC3T3-E1 cells were cultured for 3 days in a-MEM containing 10% FBS and 1% P/S. The cells were then cultured for 3 days using either the conditioned medium (1 ml, control) cultured without LPS or the conditioned medium (0.25 or 0.50 ml per well, adjusted to 1 ml with normal medium) cultured with LPS in the presence or absence of DHMBA (1 or 10 mM).
Further, to examine the effects on cell death of MC3T3-E1 cells, the cells (1×10^5 cells/ml per well) were cultured for 3 days in a-MEM containing 10% FBS and 1% P/S. After reaching subconfluence, the medium was replaced. The cells were then further cultured for 48 hours in either the normal medium, the conditioned medium (1 ml) cultured without LPS, or the conditioned medium (0.25 or 0.50 ml per well, adjusted to 1 ml with normal medium) with either a reagent vehicle (1% ethanol as final concentration) or DHMBA (1 or 10 mM). After culture, the cells were detached from each culture well, and cell numbers were counted in the same manner as described above.
Further, the effects of Bay 11-7082, which is an NF-kB signaling inhibitor, on proliferation or cell death of MC3T3-E1 cells were investigated. First, to examine the effects of Bay 11-7082 on proliferation of MC3T3-E1 cells, the cells (1×10^5 cells/1 ml per well in a 24-well plate) were cultured for 3 days until reaching subconfluence in the presence of 10% FBS, 1% P/S, and either a reagent vehicle (1% ethanol as final concentration) or Bay 11-7082 (1, 10, 50, 100, or 1000 nM). Next, MC3T3-E1 cells were cultured for 3 days in the presence of the conditioned medium (0.5 ml per well, adjusted to a total of 1 ml with normal medium) with or without Bay 11-7082 (1 or 10 nM) in the presence or absence of DHMBA (10 mM).
In another experiment, to evaluate the effects of Bay 11-7082 on cell death of MC3T3-E1, the cells (1×10^5 cells/1 ml per well in a 24-well plate) were cultured in a-MEM containing 10% FBS and 1% P/S. After culturing for 3 days until reaching subconfluence, the medium was replaced with a-MEM (1 ml) containing either the normal medium or the conditioned medium prepared by adding the normal medium to 0.5 ml per well of the conditioned medium, adjusted to a total volume of 1 ml. The cells were then further cultured for 48 hours in the presence of Bay 11-7082 (1 or 10 nM), or Bay 11-7082 (10 nM) in combination with DHMBA (10 mM). After culture, the cells were detached from each culture well, and cell numbers were counted as described above.

NF-kB p65 = experiment: Western blotting of cell lysates; type: cell-based, mouse; details: 3 days
Description: MC3T3-E1 cells (1×10^6 cells in 10 ml medium in a 100-mm dish) were cultured for 3 days in a-MEM containing 10% FBS and 1% P/S in the presence of a reagent vehicle (1% ethanol as final concentration), DHMBA (10 mM), TNF-a (10 ng/ml medium), or DHMBA (10 mM) in combination with TNF-a (10 ng/ml). After culture, the dishes were washed three times with cold PBS (10 ml), and adherent cells were removed from the dishes by scraping in Cell Lysis Buffer (Cell Signaling Technology, Inc., Danvers, MA, USA). Protein samples obtained from the cell lysates were loaded ([…] per lane) and separated by SDS-polyacrylamide gel electrophoresis (12% SDS-PAGE), as previously described. After electrophoresis, the membranes were incubated overnight at 4°C with primary antibodies (each diluted 1:1,000) against target proteins NF-kB p65 (catalog no. 3034, rabbit) and b-actin (catalog no. 3700, mouse). […] Protein bands were then detected using a chemiluminescent substrate (catalog no. 34577, Thermo Fisher Scientific Inc., Rockford, IL, USA) on X-ray film. A total of four films obtained from four independent experiments using separate membranes were scanned using an Epson Perfection 1660 Photo scanner, and band intensities were quantified using ImageJ2 software (National Institutes of Health, Bethesda, MD, USA).

NF-kB = NF-kB reporter assay (luciferase); type: cell-based, mouse; details: Fig. 8C
Description: An NF-kB-responsive luciferase reporter assay (pNF-kB-Luc, BD Biosciences) was performed according to the method previously described by the present inventors. MC3T3-E1 cells (2×10^4 cells per well in […] in a 96-well plate) were cultured for 24 hours in a-MEM containing 10% FBS and 1% P/S. After culture, the medium was removed, and the cells were washed twice with a-MEM without FBS or antibiotics. a-MEM ([…]) without FBS or antibiotics was then added to each well containing the cells. A reporter plasmid or an empty vector control (pGL3-Basic) was transfected into MC3T3-E1 cells using Lipofectamine 2000 Reagent (Invitrogen) in a-MEM without FBS or antibiotics. Five hours later, the medium was replaced with a-MEM containing 10% FBS and 1% P/S, and the cells were stimulated with TNF-a (1 or 10 ng/ml) for 24 hours. In parallel, the cells were cultured with either a reagent vehicle (1% ethanol as final concentration) or DHMBA (1 or 10 mM). After culture, the cells were extracted with Passive Lysis Buffer (Promega Corp., Madison, WI), and luciferase activity was measured using a Luciferase Assay System (Promega Corp.) with a microplate reader (Turner Designs, Inc., Sunnyvale, CA, USA). Equal transfection efficiency among all plasmids was validated by using the luciferase reporter plasmid pRL-SV40 (Promega Corp., Madison, WI).

[1] = cited from earlier work; for peroxyl radical scavenging activity relative to Trolox: greater than Trolox
[2] = system: bone-metastatic prostate cancer cells; details: earlier demonstration by the present inventors; cited from earlier work

## COc1c(O)cc(CO)cc1O [DHMBA, 3,5-dihydroxy-4-methoxybenzyl alcohol]
MC3T3-E1 cells; DHMBA in the presence of Bay 11-7082
  suppressive effect of DHMBA on conditioned-medium-induced suppression of proliferation, in combination with Bay 11-7082: not further enhanced
MC3T3-E1 cells; conditioned medium 0.5 ml, DHMBA 1 or 10 mM, 48 hours, Fig. 6B
  enhancement of death of MC3T3-E1 cells by the conditioned medium: suppressed
MC3T3-E1 cells; conditioned medium with LPS stimulation, DHMBA 1 or 10 mM, 3 days, Fig. 6A
  inhibition of proliferation of MC3T3-E1 cells by the conditioned medium: prevented
NF-kB p65; DHMBA 10 mM, without TNF-a, Figs. 8A and 8B
  expression level of NF-kB p65 in MC3T3-E1 cells: reduced
NF-kB p65; TNF-a 10 ng/ml plus DHMBA 10 mM, Fig. 8A and 8B
  TNF-a-induced increase of the level of NF-kB p65: suppressed
NF-kB; DHMBA in the absence of TNF-a
  NF-kB promoter activity in MC3T3-E1 cells: reduced
NF-kB; TNF-a 1 or 10 ng/ml plus, 24 hours
  TNF-a-induced increase of NF-kB promoter activity in MC3T3-E1 cells: suppressed
[1]; compared with other known antioxidants such as resveratrol and ascorbic acid
  reaction with HOO(•): more rapidly
[1]; in aqueous media
  peroxyl radical scavenging activity relative to Trolox: four orders of magnitude
[1]; in lipid media
  peroxyl radical scavenging activity relative to Trolox: approximately 15 fold
[2]
  metastatic activity of bone-metastatic prostate cancer cells: suppressive effects
  proliferation of bone-metastatic prostate cancer cells: suppressive effects
